# Data from the supplement of paper PMC10307832.
# Key:
# Assay in all cases: relative viability (nuclei count vs DMSO), 5 days (fraction); higher = more cells survive
# RO-3306 + OSI-027 = compound: C1=CC2=C(C=CC(=C2)C=C3C(=O)NC(=NCC4=CC=CS4)S3)N=C1 [RO-3306] + COc1cccc2cc(-c3nc([C@H]4CC[C@H](C(=O)O)CC4)n4ncnc(N)c34)[nH]c12 [OSI-027] (partner 0.5 µM)
# Outline: (§1)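 One day after seeding in 1536-well plates, lung cancer cell lines were dosed by pin tool. Dosing was either single-drug or a fixed anchor-drug dose plus five library-drug doses (not always all listed) in √10 steps. After 5 days, nuclei were stained in one fix-and-stain step and counted on 4× images, and relative viability is the nuclei count of treated wells over that of vehicle wells, given as the median of duplicate plates.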
# RO-3306 + Vorinostat = compound: C1=CC2=C(C=CC(=C2)C=C3C(=O)NC(=NCC4=CC=CS4)S3)N=C1 [RO-3306] + O=C(CCCCCCC(=O)Nc1ccccc1)NO [Vorinostat] (partner 1 µM)
# Outline: as §1
# [1] = compound: O=S(=O)(c1ccccc1)N(CC(F)(F)F)c1ccc(C(O)(C(F)(F)F)C(F)(F)F)cc1 + COc1cc2c(Oc3ccc(NC(=O)C4(C(=O)Nc5ccc(F)cc5)CC4)cc3F)ccnc2cc1OCCCN1CCOCC1 [Foretinib] (partner 0.25 µM)
# Outline: as §1
# [2] = compound: O=S(=O)(c1ccccc1)N(CC(F)(F)F)c1ccc(C(O)(C(F)(F)F)C(F)(F)F)cc1 + CS(=O)(=O)N1CCN(Cc2cc3nc(-c4cccc5[nH]ncc45)nc(N4CCOCC4)c3s2)CC1 [Pictilisib] (partner 1 µM)
# Outline: as §1
# [3] = compound: O=S(=O)(c1ccccc1)N(CC(F)(F)F)c1ccc(C(O)(C(F)(F)F)C(F)(F)F)cc1 + O=C(c1cc(Cc2n[nH]c(=O)c3ccccc23)ccc1F)N1CCN(C(=O)C2CC2)CC1 [Olaparib] (partner 8 µM)
# Outline: as §1
Cell Line,relative viability (RO-3306 + OSI-027; first compound 0.01 µM),relative viability (RO-3306 + OSI-027; first compound 0.03162 µM),relative viability (RO-3306 + OSI-027; first compound 0.1 µM),relative viability (RO-3306 + OSI-027; first compound 0.3162 µM),relative viability (RO-3306 + OSI-027; first compound 1 µM),relative viability (RO-3306 + Vorinostat; first compound 0.01 µM),relative viability (RO-3306 + Vorinostat; first compound 0.03162 µM),relative viability (RO-3306 + Vorinostat; first compound 0.1 µM),relative viability (RO-3306 + Vorinostat; first compound 0.3162 µM),relative viability (RO-3306 + Vorinostat; first compound 1 µM),relative viability ([1]; first compound 0.8 µM),relative viability ([1]; first compound 2.53 µM),relative viability ([1]; first compound 8 µM),relative viability ([2]; first compound 0.8 µM),relative viability ([2]; first compound 2.53 µM),relative viability ([2]; first compound 8 µM),relative viability ([3]; first compound 0.8 µM),relative viability ([3]; first compound 2.53 µM),relative viability ([3]; first compound 8 µM)
H3255,0.671,0.476,0.604,0.594,0.504,0.788,0.743,0.802,0.826,0.819,0.866,0.673,0.786,0.492,0.51,0.396,0.533,0.488,0.439
HARA,0.661,0.449,0.527,0.612,0.436,0.493,0.404,0.527,0.638,0.445,0.845,0.782,0.849,0.43,0.317,0.293,0.995,,0.678
HCC-15,0.664,0.562,0.649,0.808,0.608,0.923,0.712,0.898,0.854,0.773,1.03,0.951,0.847,0.785,0.684,0.654,0.737,0.581,0.644
HCC-44,0.371,0.441,0.434,0.402,0.387,1.1,1.15,1.08,1.13,1.17,,,,0.657,0.52,0.688,0.932,0.969,0.999
